Assay results published in the supplement of paper PMC10307832.

How the values were obtained:
Experiment in all cases: relative viability (nuclei count vs DMSO), 5 days (fraction); higher = more cells survive
ABC-1 = test system: ABC-1
Outline: (§1)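 Lung cancer cell lines were seeded in 1536-well plates and dosed by pin tool the next day, with either a single drug or a fixed anchor-drug dose combined with five library-drug doses (not always all listed) spaced in √10 steps. Five days later, one step fixed the cells and stained their nuclei (final 0.05% Triton X-100, 1% formaldehyde, 1 ug/ml Hoechst), and nuclei were counted on 4× images. Relative viability is the nuclei count in treated wells divided by the count in vehicle wells, and each value is the median of duplicate plates.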

BEN = test system: BEN
Outline: as §1

EPLC-272H = test system: EPLC-272H
Outline: as §1

HCC-827 = test system: HCC-827
Outline: as §1

HOP-62 = test system: HOP-62
Outline: as §1

LU99A = test system: LU99A
Outline: as §1

NCI-H1355 = test system: NCI-H1355
Outline: as §1

NCI-H1563 = test system: NCI-H1563
Outline: as §1

NCI-H1666 = test system: NCI-H1666
Outline: as §1

NCI-H1792 = test system: NCI-H1792
Outline: as §1

NCI-H1975 = test system: NCI-H1975
Outline: as §1

NCI-H2170 = test system: NCI-H2170
Outline: as §1

NCI-H23 = test system: NCI-H23
Outline: as §1

NCI-H2405 = test system: NCI-H2405
Outline: as §1

NCI-H3122 = test system: NCI-H3122
Outline: as §1

NCI-H322M = test system: NCI-H322M
Outline: as §1

NCI-H358 = test system: NCI-H358
Outline: as §1

NCI-H520 = test system: NCI-H520
Outline: as §1

NCI-H596 = test system: NCI-H596
Outline: as §1

NCI-H647 = test system: NCI-H647
Outline: as §1

NCI-H727 = test system: NCI-H727
Outline: as §1

NCI-H838 = test system: NCI-H838
Outline: as §1

PC-14 = test system: PC-14
Outline: as §1

SW 900 = test system: SW 900
Outline: as §1

UMC-11 = test system: UMC-11
Outline: as §1

CCCCCCCCCCCC1=C(O)C(=O)C=C(O)C1=O [Embelin] + Cc1nc(Nc2ncc(C(=O)Nc3c(C)cccc3Cl)s2)cc(N2CCN(CCO)CC2)n1 [Dasatinib] (partner 0.075 µM)
relative viability (ABC-1; first compound 0.08 µM): 0.575 | relative viability (ABC-1; first compound 0.8 µM): 0.657 | relative viability (ABC-1; first compound 2.53 µM): 0.528 | relative viability (ABC-1; first compound 8 µM): 0.53 | relative viability (BEN; first compound 0.08 µM): 0.355 | relative viability (BEN; first compound 0.8 µM): 0.359 | relative viability (BEN; first compound 2.53 µM): 0.259 | relative viability (BEN; first compound 8 µM): 0.362 | relative viability (EPLC-272H; first compound 0.08 µM): 0.393 | relative viability (EPLC-272H; first compound 0.8 µM): 0.469 | relative viability (EPLC-272H; first compound 2.53 µM): 0.442 | relative viability (EPLC-272H; first compound 8 µM): 0.277 | relative viability (HCC-827; first compound 0.08 µM): 0.333 | relative viability (HCC-827; first compound 0.8 µM): 0.406 | relative viability (HCC-827; first compound 2.53 µM): 0.404 | relative viability (HCC-827; first compound 8 µM): 0.321 | relative viability (HOP-62; first compound 0.08 µM): 0.66 | relative viability (HOP-62; first compound 0.8 µM): 0.776 | relative viability (HOP-62; first compound 2.53 µM): 0.68 | relative viability (HOP-62; first compound 8 µM): 0.654 | relative viability (LU99A; first compound 0.08 µM): 0.572 | relative viability (LU99A; first compound 0.8 µM): 0.759 | relative viability (LU99A; first compound 2.53 µM): 0.643 | relative viability (LU99A; first compound 8 µM): 0.515 | relative viability (NCI-H1355; first compound 0.08 µM): 0.753 | relative viability (NCI-H1355; first compound 0.8 µM): 0.808 | relative viability (NCI-H1355; first compound 2.53 µM): 0.845 | relative viability (NCI-H1355; first compound 8 µM): 0.586 | relative viability (NCI-H1563; first compound 0.08 µM): 0.475 | relative viability (NCI-H1563; first compound 0.8 µM): 0.447 | relative viability (NCI-H1563; first compound 2.53 µM): 0.405 | relative viability (NCI-H1563; first compound 8 µM): 0.387 | relative viability (NCI-H1666; first compound 0.08 µM): 0.793 | relative viability (NCI-H1666; first compound 0.8 µM): 0.88 | relative viability (NCI-H1666; first compound 2.53 µM): 0.839 | relative viability (NCI-H1666; first compound 8 µM): 0.852 | relative viability (NCI-H1792; first compound 0.08 µM): 0.771 | relative viability (NCI-H1792; first compound 0.8 µM): 0.803 | relative viability (NCI-H1792; first compound 2.53 µM): 0.792 | relative viability (NCI-H1792; first compound 8 µM): 0.867 | relative viability (NCI-H1975; first compound 0.08 µM): 0.31 | relative viability (NCI-H1975; first compound 0.8 µM): 0.396 | relative viability (NCI-H1975; first compound 2.53 µM): 0.502 | relative viability (NCI-H1975; first compound 8 µM): 0.333 | relative viability (NCI-H2170; first compound 0.08 µM): 0.649 | relative viability (NCI-H2170; first compound 0.8 µM): 0.806 | relative viability (NCI-H2170; first compound 2.53 µM): 0.694 | relative viability (NCI-H2170; first compound 8 µM): 0.533 | relative viability (NCI-H23; first compound 0.08 µM): 0.82 | relative viability (NCI-H23; first compound 0.8 µM): 0.755 | relative viability (NCI-H23; first compound 2.53 µM): 1.08 | relative viability (NCI-H23; first compound 8 µM): 0.612 | relative viability (NCI-H2405; first compound 0.08 µM): 0.238 | relative viability (NCI-H2405; first compound 0.8 µM): 0.24 | relative viability (NCI-H2405; first compound 2.53 µM): 0.178 | relative viability (NCI-H2405; first compound 8 µM): 0.215 | relative viability (NCI-H3122; first compound 0.08 µM): 0.823 | relative viability (NCI-H3122; first compound 0.8 µM): 0.922 | relative viability (NCI-H3122; first compound 2.53 µM): 0.853 | relative viability (NCI-H3122; first compound 8 µM): 0.829 | relative viability (NCI-H322M; first compound 0.08 µM): 0.26 | relative viability (NCI-H322M; first compound 0.8 µM): 0.263 | relative viability (NCI-H322M; first compound 2.53 µM): 0.261 | relative viability (NCI-H322M; first compound 8 µM): 0.232 | relative viability (NCI-H358; first compound 0.08 µM): 0.205 | relative viability (NCI-H358; first compound 0.8 µM): 0.136 | relative viability (NCI-H358; first compound 2.53 µM): 0.171 | relative viability (NCI-H358; first compound 8 µM): 0.162 | relative viability (NCI-H520; first compound 0.08 µM): 0.245 | relative viability (NCI-H520; first compound 0.8 µM): 0.188 | relative viability (NCI-H520; first compound 2.53 µM): 0.307 | relative viability (NCI-H520; first compound 8 µM): 0.132 | relative viability (NCI-H596; first compound 0.08 µM): 0.739 | relative viability (NCI-H596; first compound 0.8 µM): 0.739 | relative viability (NCI-H596; first compound 2.53 µM): 0.708 | relative viability (NCI-H596; first compound 8 µM): 0.457 | relative viability (NCI-H647; first compound 0.08 µM): 0.214 | relative viability (NCI-H647; first compound 0.8 µM): 0.242 | relative viability (NCI-H647; first compound 2.53 µM): 0.123 | relative viability (NCI-H647; first compound 8 µM): 0.14 | relative viability (NCI-H727; first compound 0.08 µM): 0.318 | relative viability (NCI-H727; first compound 0.8 µM): 0.411 | relative viability (NCI-H727; first compound 2.53 µM): 0.492 | relative viability (NCI-H727; first compound 8 µM): 0.375 | relative viability (NCI-H838; first compound 0.08 µM): 0.312 | relative viability (NCI-H838; first compound 0.8 µM): 0.316 | relative viability (NCI-H838; first compound 2.53 µM): 0.248 | relative viability (NCI-H838; first compound 8 µM): 0.224 | relative viability (PC-14; first compound 0.08 µM): 0.257 | relative viability (PC-14; first compound 0.8 µM): 0.396 | relative viability (PC-14; first compound 2.53 µM): 0.246 | relative viability (PC-14; first compound 8 µM): 0.315 | relative viability (SW 900; first compound 0.08 µM): 0.666 | relative viability (SW 900; first compound 0.8 µM): 0.571 | relative viability (SW 900; first compound 2.53 µM): 0.546 | relative viability (SW 900; first compound 8 µM): 0.57 | relative viability (UMC-11; first compound 0.08 µM): 0.45 | relative viability (UMC-11; first compound 0.8 µM): 0.48 | relative viability (UMC-11; first compound 2.53 µM): 0.519 | relative viability (UMC-11; first compound 8 µM): 0.437
